# Patent US10676504B2 (Colorado State University Research Foundation, priority 2015, dated 2020)
# Read-outs that look alike come from different tables or passages of the source.
# Key:
# [1] = biological target: T1, HDAC2 (Homo sapiens, UniProt Q92769); assay: HDAC2 inhibition, trypsin-coupled kinetic fluorescence homogeneous assay (Example 10); assay type: biochemical; design: The recombinant, full-length HDAC protein (BPS Biosciences) was incubated; purchased BPS Biosciences; details: Conc (uM); logistic curve fit of activity versus concentration; some fits reached max iterations; read-out: X50
# Experimental: To measure the inhibitory effect on deacetylase function in vitro, a continuous kinetic biochemical assay miniaturized to 384-well plate format was optimized.
# Fluorescence measurements were obtained in real-time on a Varioskan microtiter plate reader (Thermo).
# A biochemical study of HDAC2 inhibition was carried out using the trypsin-coupled, kinetic fluorescence homogeneous assay described above.
# [2] = biological target: T2, HDAC3 (Homo sapiens, UniProt O15379); assay: HDAC biochemical assay of P5-P12 (Table P1)
# T2 construct: The recombinant, full-length HDAC protein (BPS Biosciences) was incubated; purchased BPS Biosciences
# [3] = biological target: T1, HDAC2; assay: HDAC biochemical assay of P5-P12 (Table P1); design: The recombinant, full-length HDAC protein (BPS Biosciences) was incubated; purchased BPS Biosciences
# [4] = biological target: HDAC1 (Homo sapiens, UniProt Q13547); assay: HDAC biochemical assay of P5-P12 (Table P1); design: The recombinant, full-length HDAC protein (BPS Biosciences) was incubated; purchased BPS Biosciences
# [5] = system: HDACs 1-3; assay: HDAC biochemical assay of P5-P12, summary statements
# [6] = system: NCI-60 cancer cell lines; assay: cells
# Text: (§1) All compounds submitted for screening were initially tested at a single high dose (10^-5 M) against the fill NCI 60 cell panel. Only compounds which satisfied pre-determined threshold inhibition criteria in a minimum number of cell lines progressed to a second round of testing utilizing a more comprehensive 5-dose inhibition assay. The threshold inhibition criteria for progression to the 5-dose assays were selected to efficiently capture compounds with anti-proliferative activity based on historical DTP screening data.
# (§2) Concentrations for G150, IC50, TGI, and LC50 were calculated for all cell lines tested, and heat plots were prepared.
# [7] = system: melanoma cell lines; assay: cells; details: read-out: Average Concentration (M), LC50, Melanoma
# Text: as §1, §2
# [8] = system: NCI-60 cancer cell lines; details: five-dose
# Text: as §1, §2
# [9] = system: colon cancer cell lines; assay: cells; details: read-out: Average Concentration (M), LC50, Colon
# Text: as §1, §2
# [10] = system: renal cancer cell lines
# Text: as §1, §2
# [11] = system: colon cancer cell lines
# Text: as §1, §2
# [12] = biological target: T3, HDAC3/NCor2 (Homo sapiens, UniProt O15379); assay: HDAC biochemical assay (Example 16)
# T3 construct: recombinant, full-length HDAC protein; purchased BPS Biosciences
# Experimental: Thus, small-molecule inhibitors were arrayed at twelve-point dose-response (3-fold increments) in 384-well library plates and transferred by robotic pin device to replicate assay plates containing assay buffer under reducing conditions (TCEP 200 μM). A liquid handling device then transferred a tripeptide substrate terminating in acetyl-lysine and amide conjugated to 4-methyl-7-aminocoumarin (AMC), recombinant human histone deacetylase (BPS Bioscience, San Diego, Calif.), and recombinant human trypsin (Sigma-Aldrich, St. Louis, Mo.). Following deacetylase hydrolysis of acetyl-lysine, trypsin cleavage liberated the AMC fluorophore. Kinetic (fluorescence per unit time) and end-point (total fluorescence) data were captured by a multilabel plate reader. Replicate data were analyzed by curve-fit using logistic regression (Spotfire Decision-Site).
# [13] = read-out: GI50 concentrations (M), order of magnitude
# HDAC1, sequence (Q13547 whole entry): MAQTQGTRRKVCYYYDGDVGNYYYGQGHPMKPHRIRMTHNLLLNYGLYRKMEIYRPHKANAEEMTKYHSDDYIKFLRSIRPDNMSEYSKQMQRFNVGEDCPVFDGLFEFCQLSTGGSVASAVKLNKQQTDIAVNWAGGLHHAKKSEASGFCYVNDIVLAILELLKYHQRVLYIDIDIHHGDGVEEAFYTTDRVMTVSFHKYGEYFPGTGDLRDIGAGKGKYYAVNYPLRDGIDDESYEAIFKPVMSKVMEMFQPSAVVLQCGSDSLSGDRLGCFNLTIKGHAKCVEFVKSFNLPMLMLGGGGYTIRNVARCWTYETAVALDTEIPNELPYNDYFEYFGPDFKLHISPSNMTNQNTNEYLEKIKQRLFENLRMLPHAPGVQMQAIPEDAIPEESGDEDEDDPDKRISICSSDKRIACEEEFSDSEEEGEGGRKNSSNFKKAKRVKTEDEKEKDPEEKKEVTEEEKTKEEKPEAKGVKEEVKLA
# T1 sequence (Q92769 whole entry): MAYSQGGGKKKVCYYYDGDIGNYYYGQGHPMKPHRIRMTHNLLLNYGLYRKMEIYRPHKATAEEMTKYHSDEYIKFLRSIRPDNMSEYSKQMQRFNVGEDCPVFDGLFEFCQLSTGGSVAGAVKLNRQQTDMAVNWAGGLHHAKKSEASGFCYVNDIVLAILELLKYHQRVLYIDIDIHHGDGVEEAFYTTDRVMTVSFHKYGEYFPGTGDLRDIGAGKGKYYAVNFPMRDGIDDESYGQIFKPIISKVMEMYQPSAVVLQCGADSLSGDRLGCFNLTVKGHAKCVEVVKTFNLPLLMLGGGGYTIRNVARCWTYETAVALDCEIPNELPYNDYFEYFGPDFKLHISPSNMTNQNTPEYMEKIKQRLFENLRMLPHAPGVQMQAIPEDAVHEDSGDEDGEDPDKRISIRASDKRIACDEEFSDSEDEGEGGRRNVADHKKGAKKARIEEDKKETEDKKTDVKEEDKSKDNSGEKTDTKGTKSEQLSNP
# T2 sequence (O15379 whole entry): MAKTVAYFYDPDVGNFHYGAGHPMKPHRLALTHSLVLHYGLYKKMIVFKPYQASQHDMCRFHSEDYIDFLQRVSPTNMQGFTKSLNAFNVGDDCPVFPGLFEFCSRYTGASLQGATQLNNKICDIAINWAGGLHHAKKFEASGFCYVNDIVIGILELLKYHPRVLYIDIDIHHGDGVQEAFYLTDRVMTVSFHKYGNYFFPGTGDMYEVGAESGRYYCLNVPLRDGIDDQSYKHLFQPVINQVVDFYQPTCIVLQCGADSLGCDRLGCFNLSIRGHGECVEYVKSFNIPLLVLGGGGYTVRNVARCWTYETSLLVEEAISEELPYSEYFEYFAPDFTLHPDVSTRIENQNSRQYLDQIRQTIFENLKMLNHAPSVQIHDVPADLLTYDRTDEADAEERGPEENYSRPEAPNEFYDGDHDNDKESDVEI
# T2 sequence (Q9Y618 395-489 partner limits assumed): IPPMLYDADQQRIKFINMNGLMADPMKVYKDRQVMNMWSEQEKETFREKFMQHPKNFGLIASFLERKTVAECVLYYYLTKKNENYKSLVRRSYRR
# T3 sequence (O15379 whole entry): as the sequence (O15379 whole entry) above
# T3 sequence (Q9Y618 395-489 partner limits assumed): as the sequence (Q9Y618 395-489 partner limits assumed) above
compound,measurement,setting,value
CC(C)[C@@H]1NC(=O)[C@]2(C)CSC(=N2)c2csc(n2)CNC(=O)C[C@@H](/C=C/CCSC(c2ccccc2)(c2ccccc2)c2ccccc2)NC1=O,"ring closure, yield of all isomers","from COC(=O)C[C@@H](/C=C/CCSC(c1ccccc1)(c1ccccc1)c1ccccc1)NC(=O)[C@@H](NC(=O)[C@]1(C)CSC(c2csc(CNC(=O)OC(C)(C)C)n2)=N1)C(C)C, amide bond, HATU/iPr2NEt, MeCN, 0.96 mM, 3 steps",50%
"CC(=O)N[C@@H](CC(C)C)C(=O)N[C@@H](CC(C)C)C(=O)N[C@H](C=O)CCCNC(=N)N [Leupeptin, reference compound]",IC50,[1],0.308 µM
"CCCCCCCC(=O)SCCC=CC1CC(=O)NCc2cccc(n2)C2=NC(C)(CS2)C(=O)NC(C(C)C)C(=O)N1 (centres unmarked) [Compound P9, Peptide Isostere Pyridyl “IN”]",IC50,[2]; Table P1,332 nM
same,IC50,[3]; Table P1,472 nM
same,IC50,[4]; Table P1,340 nM
CC(C)[C@@H]1NC(=O)[C@@]2(C)CSC(=N2)c2csc(n2)CNC(=O)C[C@H](/C=C/CCSC(c2ccccc2)(c2ccccc2)c2ccccc2)OC1=O,"ring closure, yield of all isomers","from CC(C)[C@H](NC(=O)[C@@]1(C)CSC(c2csc(CNC(=O)OC(C)(C)C)n2)=N1)C(=O)O[C@@H](/C=C/CCSC(c1ccccc1)(c1ccccc1)c1ccccc1)CC(=O)OCC[Si](C)(C)C, amide bond, 2 steps",87%
"CC(C)[C@@H]1NC(=O)[C@]2(C)CSC(=N2)c2cccc(n2)CNC(=O)C[C@@H](/C=C/CCS)NC1=O [Compound P10, Peptide Isostere Pyridyl “IN” Thiol]",IC50,[2]; Table P1,42.5 nM
same,IC50 range in words for HDACs 1-3,[5],double-digit nM range
same,IC50,[3]; Table P1,69.8 nM
same,IC50,[4]; Table P1,42 nM
C[C@@]12CSC(=N1)c1csc(n1)CNC(=O)C[C@@H](/C=C/CCSC(c1ccccc1)(c1ccccc1)c1ccccc1)OC(=O)[C@@H]1CCCN1C2=O,"ring closure, yield of all isomers","from CC(C)(C)OC(=O)NCc1nc(C2=N[C@](C)(C(=O)N3CCC[C@H]3C(=O)O[C@H](/C=C/CCSC(c3ccccc3)(c3ccccc3)c3ccccc3)CC(=O)OCC[Si](C)(C)C)CS2)cs1, amide bond, HATU/iPr2NEt, MeCN, 0.83 mM, 2 steps",43%
"CCCCCCCC(=O)SCCC=CC1CC(=O)NCc2cccc(n2)C2=NC(C)(CS2)C(=O)NC(C(C)C)C(=O)O1 (centres unmarked) [Compound P5, Depsipeptide Pyridyl “IN”]",IC50,[2]; Table P1,332 nM
same,IC50,[3]; Table P1,350 nM
same,IC50,[4]; Table P1,204 nM
CC(C)[C@@H]1NC(=O)[C@]2(C)CSC(=N2)c2csc(n2)CNC(=O)C[C@@H](/C=C/CCCCS)OC1=O [ab6_162alr1 n + 2 thiol],IC50,[1],0.0785 µM
CCCCCCCC(=O)SCC/C=C/[C@@H]1CC(=O)NCc2nc(cs2)C2=N[C@@](C)(CS2)C(=O)N[C@@H](C(C)C)C(=O)N1 [Largazole peptide isostere],IC50,[2],1150 nM
same,IC50,[3],825 nM
same,IC50,[4],544 nM
CC(C)[C@@H]1NC(=O)[C@]2(C)CSC(=N2)c2coc(n2)CNC(=O)C[C@@H](/C=C/CCSC(c2ccccc2)(c2ccccc2)c2ccccc2)OC1=O,"ring closure, yield of all isomers","from CC(C)[C@H](NC(=O)[C@]1(C)CSC(c2coc(CNC(=O)OC(C)(C)C)n2)=N1)C(=O)O[C@H](/C=C/CCSC(c1ccccc1)(c1ccccc1)c1ccccc1)CC(=O)OCC[Si](C)(C)C, amide bond, T3P, DCM, 0.99 mM, 2 steps",35%
CCCCCCCC(=O)SCC/C=C/[C@@H]1CC(=O)NCc2cccc(n2)C2=N[C@@](C)(CS2)C(=O)N[C@@H](C(C)C)C(=O)O1 [compound of formula bb],GI50,"[6]; read-out: Average Concentration (M), GI50",7.62e-08 M
same,CC50,[7],7.01e-07 M
same,"Percent of Cell Lines Impacted (%), GI50",[8]; 50% Growth Inhibition,100%
same,"Percent of Cell Lines Impacted (%), LC50",[8]; 50% Lethal Concentration reached,12%
same,"Percent of Cell Lines Impacted (%), TGI",[8]; Total Growth Inhibition,47%
same,"Total Impacted Cell Lines (n), TGI",[8]; Total Growth Inhibition,27
same,CC50,[9],1.29e-05 M
same,"Total Impacted Cell Lines (n), LC50, Renal",[10],2
same,"Percent of Cell Lines Impacted (%), LC50, Renal",[10]; five-dose,25%
same,"Total Impacted Cell Lines (n), LC50, Colon",[11],2
same,"Percent of Cell Lines Impacted (%), LC50, Colon",[11]; five-dose,29%
CC(C)[C@@H]1NC(=O)[C@]2(C)CSC(=N2)c2cccc(n2)CNC(=O)C[C@@H](/C=C/CCSC(c2ccccc2)(c2ccccc2)c2ccccc2)OC1=O,"ring closure, yield of all isomers","from CC(C)[C@H](NC(=O)[C@]1(C)CSC(c2cccc(CNC(=O)OC(C)(C)C)n2)=N1)C(=O)O[C@H](/C=C/CCSC(c1ccccc1)(c1ccccc1)c1ccccc1)CC(=O)OCC[Si](C)(C)C, amide bond, HATU, acetonitrile, 0.96 mM, 18.0 h, 2 steps",20%
CC(C)[C@@H]1NC(=O)[C@]2(C)CSC(=N2)c2ccnc(c2)CNC(=O)C[C@@H](/C=C/CCSC(c2ccccc2)(c2ccccc2)c2ccccc2)OC1=O,"ring closure, yield of all isomers","from CC(C)[C@H](NC(=O)[C@]1(C)CSC(c2ccnc(CNC(=O)OC(C)(C)C)c2)=N1)C(=O)O[C@H](/C=C/CCSC(c1ccccc1)(c1ccccc1)c1ccccc1)CC(=O)OCC[Si](C)(C)C, amide bond, HATU/HOBt/DIPEA, acetonitrile, 1.0 mM, 18.0 h, 2 steps",23%
CC(C)[C@@H]1NC(=O)[C@]2(C)CSC(=N2)c2cccc(n2)CNC(=O)C[C@@H](/C=C/CCSC(c2ccccc2)(c2ccccc2)c2ccccc2)NC1=O,"ring closure, yield of all isomers","from COC(=O)C[C@@H](/C=C/CCSC(c1ccccc1)(c1ccccc1)c1ccccc1)NC(=O)[C@@H](NC(=O)[C@]1(C)CSC(c2cccc(CNC(=O)OC(C)(C)C)n2)=N1)C(C)C, amide bond, HATU/HOBt/DIPEA, acetonitrile, 0.97 mM, 3 steps",33%
"CCCCCCCC(=O)SCC/C=C/[C@@H]1CC(=O)NCc2cc(ccn2)C2=N[C@@](C)(CS2)C(=O)N[C@@H](C(C)C)C(=O)N1 [Compound P11, Peptide Isostere Pyridyl “OUT”]",IC50,[2]; Table P1,846 nM
same,IC50 range in words for HDACs 1-3,[5],high nM-μM range
same,IC50,[3]; Table P1,1240 nM
same,IC50,[4]; Table P1,817 nM
CCCCCCCC(=O)SCC/C=C/[C@@H]1CC(=O)NCc2cccc(n2)C2=N[C@@](C)(CS2)C(=O)N[C@@H](C(C)C)C(=O)O1 [drawing 79],GI50,[6]; [13],1e-08 M
CC(C)[C@@H]1NC(=O)[C@]2(C)CSC(=N2)c2csc(n2)CNC(=O)C[C@@H](/C=C/CCCC(=O)Nc2ccccc2N)OC1=O [Benzamide (12b)],IC50,[12],14000 nM
CC(C)[C@@H]1NC(=O)[C@]2(C)CSC(=N2)c2ccnc(c2)CNC(=O)C[C@@H](/C=C/CCSC(c2ccccc2)(c2ccccc2)c2ccccc2)NC1=O,"ring closure, yield of all isomers","from COC(=O)C[C@@H](/C=C/CCSC(c1ccccc1)(c1ccccc1)c1ccccc1)NC(=O)[C@@H](NC(=O)[C@]1(C)CSC(c2ccnc(CNC(=O)OC(C)(C)C)c2)=N1)C(C)C, amide bond, HATU/HOBt/DIPEA, acetonitrile, 0.97 mM, 3 steps",32%
CCCCCCCC(=O)SCC/C=C/[C@@H]1CC(=O)NCc2nc(cs2)C2=N[C@@](C)(CS2)C(=O)N[C@@H](C(C)C)C(=O)N1 [drawing 78],GI50,[6]; [13],1e-07 M
"CCCCCCCC(=O)SCCC=CC1CC(=O)NCc2cc(ccn2)C2=NC(C)(CS2)C(=O)NC(C(C)C)C(=O)O1 (centres unmarked) [Compound P7, Depsipeptide Pyridyl “OUT”]",IC50,[2]; Table P1,320 nM
same,IC50,[3]; Table P1,655 nM
same,IC50,[4]; Table P1,340 nM
